What was measured:
Rev-Erb alpha = biological target: T1, Rev-Erb alpha (Homo sapiens, UniProt P20393); assay: M2H (mammalian two-hybrid) cellular activation assay of Rev-Erb alpha; assay type: cell-based; conditions: M2H assay, HEK293 cells; for EC50: Gal4-Rev-Erb alpha / VP16-NCoR, luciferase reporter; for Emax: relative to DMSO, at the tested dose, read-out: TOP activation
T1 sequence (P20393 284-614 limits assumed): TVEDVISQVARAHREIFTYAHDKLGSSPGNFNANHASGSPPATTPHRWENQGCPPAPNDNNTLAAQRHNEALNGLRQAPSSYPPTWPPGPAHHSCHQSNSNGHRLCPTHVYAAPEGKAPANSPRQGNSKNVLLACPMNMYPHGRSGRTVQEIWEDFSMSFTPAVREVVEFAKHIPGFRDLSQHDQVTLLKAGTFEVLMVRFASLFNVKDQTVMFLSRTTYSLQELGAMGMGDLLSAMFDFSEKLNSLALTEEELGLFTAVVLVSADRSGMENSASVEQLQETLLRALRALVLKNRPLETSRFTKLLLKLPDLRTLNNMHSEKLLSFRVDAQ
How it was run: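 Six-point dose-response, 18 h, 37 °C, serum-free, in HEK293 cells carrying a Gal4-RE luciferase reporter with Gal4-Rev-Erb alpha or beta plus VP16-NCoR (corepressor interaction readout). EC50 and TOP activation (%) derived from luminescence across four experiments.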

melting point	EC50 (Rev-Erb alpha)	Emax (Rev-Erb alpha)	Structure (SMILES)
62.2 to 64.9 °C	1000 to 6000 nM		Clc1nnc2ccc(Oc3ccc(CNC4CC4)cc3-c3ccccc3)nn12 [Cpd.4-161, 3-chloro-6-(5-(cyclopropylaminomethyl)biphenyl-2-yloxy)-[1,2,4]triazolo[4,3-b]pyridazine]
52 to 55 °C	1000 to 6000 nM		COc1cccc(-c2cc(F)c(F)cc2Oc2ccc3nnc(C(F)(F)F)n3n2)c1 [Cpd.4-150, 3-(trifluoromethyl)-6-(4,5-difluoro-3′-methoxybiphenyl-2-yloxy)-[1,2,4]triazolo[4,3-b]pyridazine]
210 to 211 °C	> 6000 nM	> 130%	COc1ncc(-c2cc(Cl)ccc2Oc2ccc3nnc(Cl)n3n2)cn1 [Cpd.4-195, 3-chloro-6-(4-chloro-2-(2-methoxypyrimidin-5-yl)phenoxy)-[1,2,4]triazolo[4,3-b]pyridazine]
179 to 181 °C	> 6000 nM	> 130%	Cc1cc2nncn2nc1Oc1cc(C(F)(F)F)ccc1-c1cncnc1 [Cpd.5-44, 7-methyl-6-(2-(pyrimidin-5-yl)-5-(trifluoromethyl)phenoxy)-[1,2,4]triazolo[4,3-b]pyridazine]
59.1 °C	1000 to 6000 nM		CC(C)N(Cc1ccc(Oc2ccc3nnc(Cl)n3n2)c(-c2ccccc2)c1)C(C)C [Cpd.4-166, 3-chloro-6-(5-(diisopropylaminomethyl)biphenyl-2-yloxy)-[1,2,4]triazolo[4,3-b]pyridazine]
198 to 200 °C	100 to 1000 nM		FC(F)(F)c1ccc(-c2ccc(Cl)nc2)c(Oc2ccc3nnc(Cl)n3n2)c1 [Cpd.4-101, 3-chloro-6-(2-(6-chloropyridin-3-yl)-5-(trifluoromethyl)phenoxy)-[1,2,4]triazolo[4,3-b]pyridazine]
125.6 °C	100 to 1000 nM		Fc1cc(Oc2ccc3nnc(Cl)n3n2)c(-c2ccccc2)cc1F [Cpd.4-26, 6-(4,5-difluoro-biphenyl-2-yloxy)-3-chloro-[1,2,4]triazolo[4,3-b]pyridazine]
123.4 °C	100 to 1000 nM		Fc1cccc(-c2ccc(F)cc2Oc2ccc3nnc(Cl)n3n2)c1 [Cpd.4-30, 6-(3′-fluoro-4-fluoro-biphenyl-2-yloxy)-3-chloro-[1,2,4]triazolo[4,3-b]pyridazine]
189 to 192 °C	1000 to 6000 nM		COc1ncc(-c2cc(Cl)ccc2Oc2nn3c(Cl)nnc3cc2C)cn1 [Cpd.5-56, 3-chloro-6-(4-chloro-2-(2-methoxypyrimidin-5-yl)phenoxy)-7-methyl-[1,2,4]triazolo[4,3-b]pyridazine]
51 °C	100 to 1000 nM		Cc1cccc(-c2ccccc2Oc2ccc3nnc(Cl)n3n2)c1 [Cpd.4-132, 3-chloro-6-(3′-methylbiphenyl-2-yloxy)-[1,2,4]triazolo[4,3-b]pyridazine]
166.2 °C	100 to 1000 nM		Clc1ccc(Oc2ccc3nnc(Cl)n3n2)c(-c2ccccc2)c1 [Cpd.4-35, 6-(5-chloro-biphenyl-2-yloxy)-3-chloro-[1,2,4]triazolo[4,3-b]pyridazine]
148.4 °C	100 to 1000 nM		Fc1ccc(Oc2ccc3nnc(Cl)n3n2)c(-c2ccccc2)c1 [Cpd.4-15, 6-(5-fluoro-biphenyl-2-yloxy)-3-chloro-[1,2,4]triazolo[4,3-b]pyridazine]
174 to 176 °C	1000 to 6000 nM		CCc1nnc2cc(C)c(Oc3cc(C(F)(F)F)ccc3-c3cccnc3)nn12 [Cpd.5-49, 3-ethyl-7-methyl-6-(2-(pyridin-3-yl)-5-(trifluoromethyl)phenoxy)-[1,2,4]triazolo[4,3-b]pyridazine]
248.2 °C	1000 to 6000 nM		Nc1cccc(-c2cc(F)ccc2Oc2ccc3nnc(Cl)n3n2)c1 [Cpd.4-119, 3-chloro-6-(3′-amino-5-fluorobiphenyl-2-yloxy)-[1,2,4]triazolo[4,3-b]pyridazine]
241.3 to 244.5 °C	1000 to 6000 nM		Oc1cccc(-c2cc(F)ccc2Oc2ccc3nnc(Cl)n3n2)c1 [Cpd.4-77, 3-chloro-6-(5-fluoro-3′-hydroxy-biphenyl-2-yloxy)-[1,2,4]triazolo[4,3-b]pyridazine]
55 to 58 °C	100 to 1000 nM		CCCNc1ccc(Oc2ccc3nnc(Cl)n3n2)c(-c2ccccc2)c1 [Cpd.4-56, 3-chloro-6-(5-propylamino-biphenyl-2-yloxy)-[1,2,4]triazolo[4,3-b]pyridazine]
145 to 150 °C	100 to 1000 nM		CC(C)CCNc1ccc(-c2ccccc2)c(Oc2ccc3nnc(Cl)n3n2)c1 [Cpd.4-175, 3-chloro-6-(4-((3-methylbutyl)amino)biphenyl-2-yloxy)-[1,2,4]triazolo[4,3-b]pyridazine]
55 to 58 °C	100 to 1000 nM		CC(C)c1cc2nnc(Cl)n2nc1Oc1cc(C(F)(F)F)ccc1-c1ccccc1 [Cpd.5-11, 3-chloro-7-isopropyl-6-(4-trifluoromethyl-biphenyl-2-yloxy)-[1,2,4]triazolo[4,3-b]pyridazine]
73.7 to 76.9 °C	1000 to 6000 nM		COc1cccc(-c2cc(F)ccc2Oc2ccc3nnc(C(F)(F)F)n3n2)c1 [Cpd.4-149, 3-(trifluoromethyl)-6-(5-fluoro-3′-methoxybiphenyl-2-yloxy)-[1,2,4]triazolo[4,3-b]pyridazine]
102.5 °C	100 to 1000 nM		COc1cccc(-c2ccc(C(F)(F)F)cc2Oc2ccc3nnc(C(F)(F)F)n3n2)c1 [Cpd.4-137, 3-(trifluoromethyl)-6-(3′-methoxy-4-(trifluoromethyl)biphenyl-2-yloxy)-[1,2,4]triazolo[4,3-b]pyridazine]
111.6 °C	100 to 1000 nM		COc1ccc(-c2cccc(C(F)(F)F)c2)c(Oc2ccc3nnc(Cl)n3n2)c1 [Cpd.4-113, 3-chloro-6-{[4-methoxy-3′-(trifluoromethyl)biphenyl-2-yl]oxy}-[1,2,4]triazolo[4,3-b]pyridazine]
163 to 166 °C	100 to 1000 nM		COc1ncc(F)cc1-c1ccc(C(F)(F)F)cc1Oc1nn2c(Cl)nnc2cc1C [Cpd.5-41, 3-chloro-7-methyl-6-((2-(2-methoxy-5-fluoropyridin-3-yl))-5-(trifluoromethyl)phenoxy)-[1,2,4]triazolo[4,3-b]pyridazine]
240 °C	> 6000 nM	> 130%	COc1ncc(-c2ccc(C(F)(F)F)cc2Oc2nn3c(Cl)nnc3c3ccccc23)c(OC)n1 [Cpd.5-54, 3-chloro-6-(2-(2,4-dimethoxypyrimidin-5-yl)-5-(trifluoromethyl)phenoxy)-[1,2,4]triazolo[3,4-a]phthalazine]
129.3 °C	100 to 1000 nM		Fc1ccc(-c2ccccc2Oc2ccc3nnc(Cl)n3n2)cc1F [Cpd.4-20, 6-(3′,4′-difluoro-biphenyl-2-yloxy)-3-chloro-[1,2,4]triazolo[4,3-b]pyridazine]
161 to 162 °C	100 to 1000 nM		Clc1ccc(Oc2ccc3nnc(Cl)n3n2)c(Cc2ccccc2)c1 [Cpd.4-146, 6-(2-benzyl-4-chloro-phenoxy)-3-chloro-[1,2,4]triazolo[4,3-b]pyridazine]
89.7 to 90.8 °C	100 to 1000 nM		CCOc1ccc(Oc2ccc3nnc(Cl)n3n2)c(-c2ccccc2)c1 [Cpd.4-139, 3-chloro-6-(5-ethoxybiphenyl-2-yloxy)-[1,2,4]triazolo[4,3-b]pyridazine]

From patent US9586963B2 (GENFIT, priority 2011, dated 2017)
